Results from patent US20070110716A1, “Relationship of a specific metabolite to insulin resistance” (priority 2003, published 2007).

What was measured:
Akt = experiment: Insulin-stimulated phosphorylation of Akt in L6 myotubes exposed to high FA; assay type: cell-based, rat; conditions: 24 h exposure to high FA
Protocol: The model predicts that the development of insulin resistance requires FA uptake into muscle mitochondria and subsequent β-oxidation. To test this model, signaling experiments were performed in which mitochondrial FA metabolism was inhibited by carnitine deficiency or etomoxir.

L6 myocytes = experiment: Acylcarnitine and ketone accumulation in L6 myocytes exposed to high FA; assay type: cell-based, rat; conditions: co-administration
Protocol: Cell culture. Early passages of rat L6 myoblasts (ATCC CRL-1458) from the American Tissue Culture Collection (Rockville, Md.) were grown in Dulbecco's Modified Eagle Medium (DMEM) with 10% Fetal Bovine Serum, 4.0 mM glutamine, and […] gentamycin, in a humidified incubator at 37° C., 5% CO2. Myoblasts were grown on 100 mm dishes to 50-60% confluence and then subcultured onto 6 and 24-well collagen-coated plates for experiments. When cells were 70% confluent, they were induced to differentiate into myotubes by changing to low-serum DFM (DMEM, 2% horse-serum, 4.0 mM glutamine, […] gentamycin). […]
Substrate Metabolism. […] Briefly, the production of [^14C]-labeled [^14C]CO2 (complete oxidation) was measured and where appropriate, [^14C]-labeled ASM, a measure of TCA cycle intermediates and acylcarnitine esters and ketones (incomplete oxidation) was measured, using a modified 48-well microtiter plate (Kim, et al. (2002) Am. J. Physiol. Endocrinol. Metab. 282:E1014-El022). […] Radioactivity was determined by scintillation counting. […] Rates of ketone production were determined by treating media and tissue lysates with sodium borodeuteride, thereby producing ketoacids labeled with deuterium. Trimethylsilyated extracts spiked with internal standards were analyzed by GC/MS, permitting determination of βHB and AcAc in a single analysis. […]

Question: For `C[N+](C)(C)CC(O)CC(=O)[O-]` (stereo not drawn) [carnitine], which “Lipid-induced insulin resistance (insulin-stimulated phosphorylation of Akt)” value (Akt) is on record?
Answer: The value was “exacerbated lipid-induced insulin resistance in a dose-dependent manner”.

Question: Which results are given for `CCOC(=O)[C@@]1(CCCCCCOc2ccc(Cl)cc2)CO1` [etomoxir]?
Answer: Accumulation of lipid metabolites (acylcarnitines, βHB-carnitine, free ketones, C2) (L6 myocytes): prevented; Lipid-induced insulin resistance (insulin-stimulated phosphorylation of Akt) (Akt): at least partly protected
